# Data reported in patent publication US9795646B2, “Boswellia oil, its fractions and compositions for enhancing brain function” (LAILA NUTRACEUTICALS, priority 2010, dated 2017).
# Columns and labels:
# Assay type in all cases: cell-based
# [1] = test system: RAW 264.7 mouse macrophages; assay: Assay for measuring reactive oxygen species (ROS), DCFH-DA, H2O2; settings: H2O2 treated RAW 264.7 cells
# Method: Formation of ROS was measured using of the fluorescent probe DCFH-DA. The method is based on the incubation of the RAW 264.7 mouse macrophages with DCFH-DA, which diffuses passively through the cellular membrane. Intracellular esterase activity results in the formation of DCFH, which emits fluorescence when oxidized to 20, 70-dichlorofluorescein (DCF). Briefly, the cells (final concentration 2×10^6/ml suspension) were incubated with DCFH-DA ([…]) in HEPES-buffered (20 mM) HBSS (CaCl2 1.26 mM, KCL 5.37 mM, KH2PO4 0.44 mM; MgCl2
# 0.49 mM, MgSO4 0.41 mM, NaCl 140 mM, NaHCO3 4.17 mM, Na2HPO4 0.34 mM) with glucose (5 mM) at 37° C. for 15 min. Following centrifugation, the extracellular buffer with DCFH-DA was exchanged with fresh buffer and the suspension was mixed gently. […] Fluorescence was recorded using excitation wavelength 485 nm, emission wavelength 530 nm in a Modulus luminescence spectrometer (Turner Biosystems, USA) for 120 min. Results are calculated as area under the curve (AUC) and the percentage of inhibition of intracellular ROS generation was calculated from the cultures treated with H2O2.
# [2] = test system: IMR32 human neuroblastoma cells; assay: MTT cell proliferation assay, protection from oxidative stress induced cytotoxic damage; settings: vehicle control 100.00, H2O2 alone 78.71
# Method: Briefly, IMR32 human neuroblastoma cells were cultivated in Dulbecco's modified Eagle's red medium (DMEM) (Sigma Life Science, USA) containing 10% fetal bovine serum (FBS). Equal number of IMR32 cells was seeded in to each well of 96 well microplate and incubated at 37° C. with 5% CO2. […] Control wells were supplemented with 0.05% DMSO. After 72 h of treatment, equal volume of MTT reagent (R&D Systems, USA) was added to each well and incubated for 4 h. Thereafter, 50 μl of solublization buffer (R&D Systems, USA) was added to each well to solubilize the colored formazan crystals produced by the reduction of MTT. After 24 h, the optical density was measured at 550 nm using microplate reader (Bio-Rad, USA). In each assay, the vehicle control and the treatments were done in quadruplicates. The average OD obtained in the vehicle control wells is considered as the cell proliferation index of 100.
# [3] = target: T1, acetylcholine esterase (AChE) (Rattus norvegicus, UniProt P37136); assay: Acetylcholine esterase inhibitory activity in β-amyloid peptide induced PC 12 cells; settings: Beta Amyloid induced PC12 cells, Table 8
# T1 construct: The cell extracts were used as samples for measuring the acetylcholine esterase (AChE) activity; endogenous in cells; host or cells: rat pheochromocytoma PC 12 cells, induced with β-amyloid peptide
# T1 sequence (P37136 32-614): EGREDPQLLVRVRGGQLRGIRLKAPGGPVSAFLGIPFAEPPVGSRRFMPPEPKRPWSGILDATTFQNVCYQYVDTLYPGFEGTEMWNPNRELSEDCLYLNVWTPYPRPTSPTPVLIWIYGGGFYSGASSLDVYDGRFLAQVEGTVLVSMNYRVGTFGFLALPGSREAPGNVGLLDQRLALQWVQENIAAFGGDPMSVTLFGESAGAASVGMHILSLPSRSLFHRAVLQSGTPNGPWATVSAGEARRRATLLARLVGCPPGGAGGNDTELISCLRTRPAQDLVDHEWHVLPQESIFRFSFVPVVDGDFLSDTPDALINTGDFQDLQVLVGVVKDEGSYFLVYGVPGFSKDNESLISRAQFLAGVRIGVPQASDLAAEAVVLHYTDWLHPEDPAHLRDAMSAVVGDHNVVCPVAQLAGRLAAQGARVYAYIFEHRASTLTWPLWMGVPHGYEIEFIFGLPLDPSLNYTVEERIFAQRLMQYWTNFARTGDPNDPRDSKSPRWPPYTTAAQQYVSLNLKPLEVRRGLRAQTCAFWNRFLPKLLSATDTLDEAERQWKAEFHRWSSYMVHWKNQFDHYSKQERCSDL
# Method: As a part of developing new agents for improving brain/mental function and alleviating disease conditions related to cognition and memory deficits, a large number of plant extracts have been screened for their inhibitory property on Acetylcholinesterase enzyme activity. The assay was performed in vitro by the method of Ellman et al., with minor modifications, using acetylthiocholine iodide as a substrate (Lee J. H., et. al. Arch Pharm Res 2004, 27(1): 53-56). […] Its acetylcholinesterase inhibitory activity was also evaluated by a cell based in vitro assay in Rat pheochromocytoma PC 12 cells. […] Rat pheochromocytoma PC 12 cells were equally distributed with phenol red free Dulbecco's modified Eagle's red medium (DMEM) (Sigma Life Science, USA) containing 10% fetal bovine serum (FBS) in 24-well plate. […] Thereafter, cells were induced with 1 μg/mL of β-amyloid peptide (Calbiochem, USA) for 24 h at 37° C. After 24 h, cells were collected and washed twice with 1×PBS by centrifugation at 1200 rpm for 5 min at 4° C. The cell extracts were prepared in solubilization buffer and the cell lysates were analyzed for acetylcholine esterase (AChE) activity.
# The inhibitory property on the enzyme activity was assessed in β-amyloid peptide induced-rat pheochromocytoma PC 12 cells. Rat pheochromocytoma PC 12 cells were equally distributed with phenol red free Dulbecco's modified Eagle's red medium (DMEM) (Sigma Life Science, USA) containing 10% fetal bovine serum (FBS) in 24-well plate. […] Thereafter, cells were induced with 1 μg/mL of β-amyloid peptide (Calbiochem, USA) for 24 h at 37° C. After 24 h, cells were collected and washed twice with 1×PBS by centrifugation at 1200 rpm for 5 min at 4° C. Cell extracts were prepared in solubilization buffer (10 mM Tris, pH 7.2; 100 mM NaCl, 50 mM MgCl2, 1% Triton X-100). The cell extracts were used as samples for measuring the acetylcholine esterase (AChE) activity.
# Cell extract samples (100 μl) were dispensed into each well of 96-well microtitre plate. Fifty micro liters of DTNB (Dithiobisnitro benzoate) solution was added to each well and incubated for 5 min at room temperature. After incubation, 50 μl of acetyl choline iodide solution was added to each well and absorbance was read immediately at 405 nm for 12 min at 2 min intervals. A standard curve was constructed by using serial concentrations of acetyl cholinesterase (0-100 mU). Total protein present in 100 μl aliquot of cell extract was calculated by Bradford method and the enzyme activity was normalized and expressed as unit activity per milligram of protein.
smiles,measurement,setting,value
COc1c(O)cc2oc3cc(O)c(CC=C(C)C)c(O)c3c(=O)c2c1CC=C(C)C [α-mangostin],Inhibition of Reactive Oxygen Species (ROS) generation (IC50),[1],49.817 µg/mL
same,Cell proliferation Index,"[2]; 10 ng/ml with 250 uM H2O2, 72 h",80.32
same,Cell proliferation Index,"[2]; 25 ng/ml with 250 uM H2O2, 72 h",86.78
same,Cell proliferation Index,"[2]; 50 ng/ml with 250 uM H2O2, 72 h",87.21
same,Cell proliferation Index,"[2]; 100 ng/ml with 250 uM H2O2, 72 h",91.78
same,% inhibition in Acetylcholinesterase (AChE) activity,[3]; 100 ng/ml,26.83%
same,% inhibition in Acetylcholinesterase (AChE) activity,[3]; 250 ng/ml,29.48%
